Assay results reported in patent US20080299228A1, “TOPICAL COMPOSITIONS COMPRISING A MACROMOLECULE AND METHODS OF USING SAME” (priority 2007, published 2008).

Assay: Excipient compatibility screening with sodium thiosulfate (appearance)
Type: physicochemical
Settings: added to the gel formulation
Experimental: During preformulation studies, sodium thiosulfate and methionine were identified as effective antioxidants for PTH(1-34). […] Sodium thiosulfate was assayed in the gel formulations listed in Table 21 in the absence of PTH(1-34) in order to identify which excipients were incompatible with sodium thiosulfate. Gel formulations were prepared according to the method described in Example 8. LDPE dropper bottles (5 mL) were purchased from IntraPac Group and over wrap foil (FR-2175) was obtained from Covalence Coated Products. The appearance of all samples was noted initially and after one week of storage at 20° C. protected from light.

## O=S([O-])([O-])=S.[Na+].[Na+] [sodium thiosulfate]
  compatibility with the gel formulation: a yellowish precipitate formed
